Patent US20200187502A1, “MICROBIOCIDAL OXADIAZOLE DERIVATIVES” (SYNGENTA PARTICIPATIONS AG, priority 2017, published 2020)

Experiments:
[1] = test system: Puccinia recondita f. Sp. Tritici; assay: Fungicidal activity, wheat leaf disc curative (brown rust); assay type: in vivo; conditions: foliar, 200 ppm in the applied formulation, wheat leaf segments cv. Kanzler, curative (applied 1 day after inoculation), compared to untreated control, 6 to 8 days after application, read-out: disease control
Description: (§1) Leaf disks or leaf segments of various plant species are cut from plants grown in a greenhouse. The cut leaf disks or segments are placed in multiwell plates (24-well format) onto water agar. The leaf disks are sprayed with a test solution before (preventative) or after (curative) inoculation. Compounds to be tested are prepared as DMSO solutions (max. 10 mg/ml) which are diluted to the appropriate concentration with 0.025% Tween20 just before spraying. The inoculated leaf disks or segments are incubated under defined conditions (temperature, relative humidity, light, etc.) according to the respective test system. A single evaluation of disease level is carried out 3 to 14 days after inoculation, depending on the pathosystem. Percent disease control relative to the untreated check leaf disks or segments is then calculated.
Wheat leaf segments cv. Kanzler are placed on agar in multiwell plates (24-well format). The leaf segments are then inoculated with a spore suspension of the fungus. Plates were stored in darkness at 19° C. and 75% relative humidity. The formulated test compound diluted in water was applied 1 day after inoculation. The leaf segments were incubated at 19° C. and 75% relative humidity under a light regime of 12 hours light/12 hours darkness in a climate cabinet and the activity of a compound was assessed as percent disease control compared to untreated when an appropriate level of disease damage appears in untreated check leaf segments (6 to 8 days after application).
(§2) The following compounds at 200 ppm in the applied formulation give at least 80% disease control in this test when compared to untreated control leaf disks under the same conditions, which show extensive disease development.

[2] = test system: Glomerella lacenarium (Colletotrichum lacenarium); assay: Fungicidal activity, liquid culture, cucumber preventative (anthracnose); assay type: cell-based; conditions: 20 ppm in the applied formulation, liquid culture in PDB, inhibition of growth measured photometrically 3 to 4 days after application, compared to untreated control, read-out: disease control
Description: Mycelia fragments or conidia suspensions of a fungus prepared either freshly from liquid cultures of the fungus or from cryogenic storage, are directly mixed into nutrient broth. DMSO solutions of the test compound (max. 10 mg/ml) are diluted with 0.025% Tween20 by a factor of 50 and 10 μl of this solution is pipetted into a microtiter plate (96-well format). The nutrient broth containing the fungal spores/mycelia fragments is then added to give an end concentration of the tested compound. The test plates are incubated in the dark at 24° C. and 96% relative humidity. The inhibition of fungal growth is determined photometrically after 2 to 7 days, depending on the pathosystem, and percent antifungal activity relative to the untreated check is calculated.
Conidia of the fungus from cryogenic storage are directly mixed into nutrient broth (PDB—potato dextrose broth). After placing a (DMSO) solution of test compound into a microtiter plate (96-well format), the nutrient broth containing the fungal spores is added. The test plates are incubated at 24° C. and the inhibition of growth is measured photometrically 3 to 4 days after application.
The following compounds at 20 ppm in the applied formulation give at least 80% disease control in this test when compared to untreated control under the same conditions, which show extensive disease development.

[3] = test system: Puccinia recondita f. Sp. Tritici; assay: Fungicidal activity, wheat leaf disc preventative (brown rust); assay type: in vivo; conditions: foliar, 200 ppm in the applied formulation, wheat leaf segments cv. Kanzler, compared to untreated control, 7 to 9 days after application, read-out: disease control
Description: as §1
Wheat leaf segments cv. Kanzler were placed on agar in multiwell plates (24-well format) and sprayed with the formulated test compound diluted in water. The leaf disks were inoculated with a spore suspension of the fungus 1 day after application. The inoculated leaf segments were incubated at 19° C. and 75% relative humidity (rh) under a light regime of 12 hours light/12 hours darkness in a climate cabinet and the activity of a compound was assessed as percent disease control compared to untreated when an appropriate level of disease damage appears in untreated check leaf segments (7 to 9 days after application).
as §2

SMILES: CCC(C)C(=O)N(Cc1ccc(-c2noc(C(F)(F)F)n2)s1)OCC(F)F (stereo not drawn) [Compound 4.66, N-(2,2-difluoroethoxy)-2-methyl-N-[[5-[5-(trifluoromethyl)-1,2,4-oxadiazol-3-yl]-2-thienyl]methyl]butanamide]
- pest or weed control at 200 ppm [1]: ≥ 80%
- inhibition of growth at 20 ppm [2]: ≥ 80%

SMILES: CCC(C)C(=O)N(CC)Cc1ccc(-c2noc(C(F)(F)F)n2)s1 (stereo not drawn) [Compound 4.27, N-ethyl-2-methyl-N-[[5-[5-(trifluoromethyl)-1,2,4-oxadiazol-3-yl]-2-thienyl]methyl]butanamide]
- pest or weed control at 200 ppm [1]: ≥ 80%
- inhibition of growth at 20 ppm [2]: ≥ 80%

SMILES: CCC(C)C(=O)N(Cc1ccc(-c2noc(C(F)(F)F)n2)s1)C1CC1 (stereo not drawn) [Compound 4.57, N-cyclopropyl-2-methyl-N-[[5-[5-(trifluoromethyl)-1,2,4-oxadiazol-3-yl]-2-thienyl]methyl]butanamide]
- pest or weed control at 200 ppm [1]: ≥ 80%
- inhibition of growth at 20 ppm [2]: ≥ 80%

SMILES: CC(C)N(Cc1ccc(-c2noc(C(F)(F)F)n2)s1)C(=O)C1CC1(F)F (stereo not drawn) [Compound 5.33, 2,2-difluoro-N-isopropyl-N-[[5-[5-(trifluoromethyl)-1,2,4-oxadiazol-3-yl]-2-thienyl]methyl]cyclopropanecarboxamide]
- pest or weed control at 200 ppm [1]: ≥ 80%
- inhibition of growth at 20 ppm [2]: ≥ 80%

SMILES: O=C(CC(F)(F)F)N(Cc1ccc(-c2noc(C(F)(F)F)n2)s1)OCC(F)F [Compound 4.68, N-(2,2-difluoroethoxy)-3,3,3-trifluoro-N-[[5-[5-(trifluoromethyl)-1,2,4-oxadiazol-3-yl]-2-thienyl]methyl]propanamide]
- pest or weed control at 200 ppm [1]: ≥ 80%
- inhibition of growth at 20 ppm [2]: ≥ 80%

SMILES: CON(Cc1ccc(-c2noc(C(F)(F)F)n2)s1)C(=O)N1CCCO1 [Compound 1.57, N-methoxy-N-[[5-[5-(trifluoromethyl)-1,2,4-oxadiazol-3-yl]-2-thienyl]methyl]isoxazolidine-2-carboxamide]
- pest or weed control at 200 ppm [1]: ≥ 80%
- inhibition of growth at 20 ppm [2]: ≥ 80%

SMILES: CCN(Cc1ccc(-c2noc(C(F)(F)F)n2)s1)C(=O)C1CC1(F)F (stereo not drawn) [Compound 5.15, N-ethyl-2,2-difluoro-N-[[5-[5-(trifluoromethyl)-1,2,4-oxadiazol-3-yl]-2-thienyl]methyl]cyclopropanecarboxamide]
- pest or weed control at 200 ppm [1]: ≥ 80%
- inhibition of growth at 20 ppm [2]: ≥ 80%

SMILES: COCCN(CCOC)C(=O)N(Cc1ccc(-c2noc(C(F)(F)F)n2)s1)OC [Compound 1.56, 1-methoxy-3,3-bis(2-methoxyethyl)-1-[[5-[5-(trifluoromethyl)-1,2,4-oxadiazol-3-yl]-2-thienyl]methyl]urea]
- pest or weed control at 200 ppm [1]: ≥ 80%
- inhibition of growth at 20 ppm [2]: ≥ 80%

SMILES: Cc1ccc(S(=O)(=O)N(C)Cc2ccc(-c3noc(C(F)(F)F)n3)s2)cc1 [Compound 6.28, N,4-dimethyl-N-[[5-[5-(trifluoromethyl)-1,2,4-oxadiazol-3-yl]-2-thienyl]methyl]benzenesulfonamide]
- pest or weed control at 200 ppm [1]: ≥ 80%

SMILES: O=C(C1CCOC1)N(Cc1ccc(-c2noc(C(F)(F)F)n2)s1)OCC(F)F (stereo not drawn) [Compound 5.46, N-(2,2-difluoroethoxy)-N-[[5-[5-(trifluoromethyl)-1,2,4-oxadiazol-3-yl]-2-thienyl]methyl]tetrahydrofuran-3-carboxamide]
- pest or weed control at 200 ppm [3]: ≥ 80%
- inhibition of growth at 20 ppm [2]: ≥ 80%

SMILES: CN(Cc1ccc(-c2noc(C(F)(F)F)n2)s1)C(=O)c1ccccc1Cl [Compound 5.17, 2-chloro-N-methyl-N-[[5-[5-(trifluoromethyl)-1,2,4-oxadiazol-3-yl]-2-thienyl]methyl]benzamide]
- pest or weed control at 200 ppm [3]: ≥ 80%
- inhibition of growth at 20 ppm [2]: ≥ 80%

SMILES: CCN(Cc1ccc(-c2noc(C(F)(F)F)n2)s1)S(=O)(=O)C1CC1 [Compound 6.19, N-ethyl-N-[[5-[5-(trifluoromethyl)-1,2,4-oxadiazol-3-yl]-2-thienyl]methyl]cyclopropanesulfonamide]
- pest or weed control at 200 ppm [3]: ≥ 80%
- inhibition of growth at 20 ppm [2]: ≥ 80%

SMILES: CC(=O)N(Cc1ccc(-c2noc(C(F)(F)F)n2)s1)OCC(F)F [Compound 4.69, N-(2,2-difluoroethoxy)-N-[[5-[5-(trifluoromethyl)-1,2,4-oxadiazol-3-yl]-2-thienyl]methyl]acetamide]
- pest or weed control at 200 ppm [3]: ≥ 80%
- inhibition of growth at 20 ppm [2]: ≥ 80%

SMILES: CC(C)N(Cc1ccc(-c2noc(C(F)(F)F)n2)s1)C(=O)c1ccccc1Cl [Compound 5.26, 2-chloro-N-isopropyl-N-[[5-[5-(trifluoromethyl)-1,2,4-oxadiazol-3-yl]-2-thienyl]methyl]benzamide]
- pest or weed control at 200 ppm [3]: ≥ 80%
- inhibition of growth at 20 ppm [2]: ≥ 80%

SMILES: O=C(C1CCC1)N(Cc1ccc(-c2noc(C(F)(F)F)n2)s1)C1CC1 [Compound 5.38, N-cyclopropyl-N-[[5-[5-(trifluoromethyl)-1,2,4-oxadiazol-3-yl]-2-thienyl]methyl]cyclobutanecarboxamide]
- pest or weed control at 200 ppm [3]: ≥ 80%
- inhibition of growth at 20 ppm [2]: ≥ 80%

SMILES: O=C(N(Cc1ccc(-c2noc(C(F)(F)F)n2)s1)C1CC1)N(CC(F)F)C1CC1 [Compound 5.60, 1,3-dicyclopropyl-1-(2,2-difluoroethyl)-3-[[5-[5-(trifluoromethyl)-1,2,4-oxadiazol-3-yl]-2-thienyl]methyl]urea]
- pest or weed control at 200 ppm [3]: ≥ 80%
- inhibition of growth at 20 ppm [2]: ≥ 80%

SMILES: CN(Cc1ccc(-c2noc(C(F)(F)F)n2)s1)S(=O)(=O)C1CC1 [Compound 6.30, N-methyl-N-[[5-[5-(trifluoromethyl)-1,2,4-oxadiazol-3-yl]-2-thienyl]methyl]cyclopropanesulfonamide]
- pest or weed control at 200 ppm [3]: ≥ 80%
- inhibition of growth at 20 ppm [2]: ≥ 80%

SMILES: CCCS(=O)(=O)N(C)Cc1ccc(-c2noc(C(F)(F)F)n2)s1 [Compound 6.31, N-methyl-N-[[5-[5-(trifluoromethyl)-1,2,4-oxadiazol-3-yl]-2-thienyl]methyl]propane-1-sulfonamide]
- pest or weed control at 200 ppm [3]: ≥ 80%
- inhibition of growth at 20 ppm [2]: ≥ 80%

SMILES: CC(=O)N(Cc1ccc(-c2noc(C(F)(F)F)n2)s1)C1CC1 [Compound 4.61, N-cyclopropyl-N-[[5-[5-(trifluoromethyl)-1,2,4-oxadiazol-3-yl]-2-thienyl]methyl]acetamide]
- pest or weed control at 200 ppm [3]: ≥ 80%
- inhibition of growth at 20 ppm [2]: ≥ 80%

SMILES: O=C(C(=O)N(Cc1ccc(-c2noc(C(F)(F)F)n2)s1)C1CC1)c1cccs1 [Compound 6.59, N-cyclopropyl-2-oxo-2-(2-thienyl)-N-[[5-[5-(trifluoromethyl)-1,2,4-oxadiazol-3-yl]-2-thienyl]methyl]acetamide]
- pest or weed control at 200 ppm [3]: ≥ 80%
- inhibition of growth at 20 ppm [2]: ≥ 80%

SMILES: CN(C)S(=O)(=O)N(C)Cc1ccc(-c2noc(C(F)(F)F)n2)s1 [Compound 6.29, N-(dimethylsulfamoyl)-N-methyl-1-[5-[5-(trifluoromethyl)-1,2,4-oxadiazol-3-yl]-2-thienyl]methanamine]
- pest or weed control at 200 ppm [3]: ≥ 80%
- inhibition of growth at 20 ppm [2]: ≥ 80%

SMILES: CN(C)S(=O)(=O)N(Cc1ccc(-c2noc(C(F)(F)F)n2)s1)C1CC1 [Compound 6.2, N-(dimethylsulfamoyl)-N-[[5-[5-(trifluoromethyl)-1,2,4-oxadiazol-3-yl]-2-thienyl]methyl]cyclopropanamine]
- pest or weed control at 200 ppm [3]: ≥ 80%
- inhibition of growth at 20 ppm [2]: ≥ 80%

SMILES: O=C(C(=O)N(Cc1ccc(-c2noc(C(F)(F)F)n2)s1)OCC(F)F)c1cccs1 [Compound 6.63, N-(2,2-difluoroethoxy)-2-oxo-2-(2-thienyl)-N-[[5-[5-(trifluoromethyl)-1,2,4-oxadiazol-3-yl]-2-thienyl]methyl]acetamide]
- pest or weed control at 200 ppm [3]: ≥ 80%
- inhibition of growth at 20 ppm [2]: ≥ 80%
